Measurements: paper PMC12605013, “SAG1.3-derived Frizzled-targeting small-molecule compounds” (The Journal of Biological Chemistry, 2025)

B1: vantictumab: monoclonal antibody binding to five of 10 FZD paralogs (antibody, chains of the INN, looked up, V domains shown)
VH: EVQLVESGGGLVQPGGSLRLSCAASGFTFSHYTLSWVRQAPGKGLEWVSVISGDGSYTYYADSVKGRFTISSDNSKNTLYLQMNSLRAEDTAVYYCARNFIKYVFANWGQGTLVTVSS
VL: DIELTQPPSVSVAPGQTARISCSGDNIGSFYVHWYQQKPGQAPVLVIYDKSNRPSGIPERFSGSNSGNTATLTISGTQAEDEADYYCQSYANTLSLVFGGGTKLTVL

Assays:
Nluc-FZD6 = target: T1, Nluc-FZD6 (Homo sapiens, UniProt O60353); assay: BRET-based BODIPY-cyclopamine competition binding at Nluc-FZD6 in live HEK293 cells; conditions: for Displacement % / Displacement @ 10 µM compound (Nluc-FZD6) ΔBRET: 10 µM compound, BODIPY-cyclopamine 300 nM
T1 construct: expressed in transfected cells; host or cells: ΔSMO HEK293A or ΔFZD1–10 HEK293T cells (screen); ΔFZD1–10 HEK293T cells (concentration–response curves)
T1 sequence (O60353 19-706): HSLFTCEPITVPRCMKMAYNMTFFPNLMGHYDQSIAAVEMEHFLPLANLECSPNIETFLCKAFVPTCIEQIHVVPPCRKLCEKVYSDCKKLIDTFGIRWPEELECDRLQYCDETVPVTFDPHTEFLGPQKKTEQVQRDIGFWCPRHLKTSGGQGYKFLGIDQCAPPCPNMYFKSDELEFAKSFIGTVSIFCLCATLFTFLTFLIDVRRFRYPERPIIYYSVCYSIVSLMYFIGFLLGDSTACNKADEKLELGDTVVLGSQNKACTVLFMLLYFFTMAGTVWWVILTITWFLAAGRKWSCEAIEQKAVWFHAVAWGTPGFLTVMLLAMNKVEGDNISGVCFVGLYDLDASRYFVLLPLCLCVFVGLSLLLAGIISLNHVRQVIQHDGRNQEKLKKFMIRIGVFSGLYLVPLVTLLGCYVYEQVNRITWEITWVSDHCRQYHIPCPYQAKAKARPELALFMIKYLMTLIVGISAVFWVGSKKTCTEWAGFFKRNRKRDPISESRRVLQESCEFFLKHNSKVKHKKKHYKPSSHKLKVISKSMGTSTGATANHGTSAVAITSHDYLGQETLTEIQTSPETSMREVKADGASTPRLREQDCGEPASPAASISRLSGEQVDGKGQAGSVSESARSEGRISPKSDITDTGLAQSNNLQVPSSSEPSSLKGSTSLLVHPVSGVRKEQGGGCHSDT
Procedure: After 24 h, cells were washed once with Hanks' balanced salt solution (HBSS), followed by the addition of 80 μl of HBSS. Next, 10 μl of the competitive ligand, that is, the tested SAG1.3 derivative (either in different concentrations for the concentration–response curves or at a final concentration of 10 μM for the first screens) and 10 μl of the fluorescent tracer BODIPY–cyclopamine (final concentration: 300 nM for the first screens, 200 nM for the concentration–response experiments) were added. All serial dilutions were prepared in HBSS. The cells were incubated for 90 min at 37 °C without additional CO2, after which 10 μl of luciferase substrate diluted in HBSS (furimazine; Promega, N1572, final dilution: 1:1000 for first screening) and coelenterazine h (Biosynth; final concentration: 5 μM for concentration–response experiments) were added to the cells. Following a 10 min incubation period in the dark, the measurement was started on a BMG Labtech ClarioStar or TECAN Spark multimode microplate reader, prewarmed to 37 °C. Nluc bioluminescence was detected between 460 and 490 nm (ClarioStar) or 460 and 500 nm (TECAN Spark). The emission of the fluorescent tracer was detected between 520 and 550 nm (ClarioStar) or between 520 and 560 nm (TECAN Spark).
For each binding experiment, the measurement was repeated five times and averaged for the analysis. ΔBRET values were obtained by subtracting the BRET ratio obtained in wells containing BODIPY–cyclopamine but no competitive ligand (100% value). The BRET values for full displacement were defined using “donor-only” control wells, which contained Nluc-FZDx-transfected cells but no BODIPY–cyclopamine.
For the full concentration–response BRET binding curves in Figure 2, BRET values were normalized (separately for each experiment) to control wells containing BODIPY–cyclopamine but no competitive ligand (100% value) and “donor-only” wells (0% value, described previously). […] Obtained IC50 values were transformed to pIC50 values, which were subsequently averaged between experiments. Displacement curves showing the non-normalized data (ΔBRET values generated as described previously) can be found in Fig. S2.
Shown are mean values and SDs from N independent experiments (N = 2-8) performed in duplicate.
Shown are mean values ± SEM from N independent experiments performed in triplicate.

FZD6 = tested on: FZD6; parameters: method as in PMID 31964872, PMID 34168128; conditions: ref [18], [24]; cited from earlier work
[1] = parameters: method as in PMID 31338636, PMID 32803633; conditions: ref [14], [54]; cited from earlier work
[2] = TECAN Spark reader (complete tracer displacement: net BRET = -0.03823)
[3] = BODIPY-cyclopamine 200 nM, ΔFZD1-10 HEK293T cells
[4] = BMG Labtech ClarioStar reader (complete tracer displacement: net BRET = -0.02736)

Molecule	Displacement % (Nluc-FZD6; TECAN Spark reader) [%]	Displacement @ 10 µM compound (Nluc-FZD6) ΔBRET (Nluc-FZD6; [2])	pIC50 (Nluc-FZD6) mean ± SEM (Nluc-FZD6; [3])	other results
CN1CCN(CC(=O)Nc2cccc(C(=O)N[C@H]3CC[C@H](N(Cc4cccc(-c5ccncc5)c4)C(=O)c4sc5ccccc5c4Cl)CC3)c2)CC1 [compound 18, 3-Chloro-N-((1r,4r)-4-(3-(2-(4-methylpiperazin-1-yl)acetamido)benzamido)cyclohexyl)-N-(3-(pyridin-4-yl)benzyl)benzo[b]thiophene-2-carboxamide]	81.1	-0.0310	5.50 ± 0.04	–
Nc1ccc(C(=O)N[C@H]2CC[C@H](N(Cc3cccc(-c4ccncc4)c3)C(=O)c3sc4ccccc4c3Cl)CC2)nn1 [compound 23, 6-Amino-N-((1r,4r)-4-(3-chloro-N-(3-(pyridin-4-yl)benzyl)benzo[b]thiophene-2-carboxamido)cyclohexyl)pyridazine-3-carboxamide]	85.8	-0.0328	5.54 ± 0.03	–
CC(C)C(=O)Nc1cccc(C(=O)N[C@H]2CC[C@H](N(Cc3cccc(-c4ccncc4)c3)C(=O)c3sc4ccccc4c3Cl)CC2)c1 [compound 15, 3-Chloro-N-((1r,4r)-4-(3-isobutyramidobenzamido)cyclohexyl)-N-(3-(pyridin-4-yl)benzyl)benzo[b]thiophene-2-carboxamide]	70.1	-0.0268	5.13 ± 0.16	–
CCC(=O)Nc1cccc(C(=O)N[C@H]2CC[C@H](N(Cc3cccc(-c4ccncc4)c3)C(=O)c3sc4ccccc4c3Cl)CC2)c1 [compound 14, 3-Chloro-N-((1r,4r)-4-(3-propionamidobenzamido)cyclohexyl)-N-(3-(pyridin-4-yl)benzyl)benzo[b]thiophene-2-carboxamide]	75.9	-0.0290	5.57 ± 0.17	–
O=C(N[C@H]1CC[C@H](N(Cc2cccc(-c3ccncc3)c2)C(=O)c2sc3ccccc3c2Cl)CC1)c1ccco1 [compound 10]	–	–	5.29 ± 0.02	Displacement @ 10 µM compound (Nluc-FZD6) ΔBRET (Nluc-FZD6; [4]): -0.0207; Displacement % (Nluc-FZD6; ClarioStar reader): 75.5%
O=C(NC1CCC(N(Cc2ccc(-c3cccnc3)cc2)C(=O)c2sc3ccccc3c2Cl)CC1)c1ccco1 (stereo not shown) [compound 52, N-(4-(3-Chloro-N-(4-(pyridin-3-yl)benzyl)benzo[b]thiophene-2-carboxamido)cyclohexyl)furan-2-carboxamide]	–	–	–	Displacement @ 10 µM compound (Nluc-FZD6) ΔBRET (Nluc-FZD6; [4]): -0.0194; Displacement % (Nluc-FZD6; ClarioStar reader): 70.9%; IC50 (Nluc-FZD6; BODIPY-cyclopamine 200 nM, ΔFZD1-10 HEK293T cells, read-out: pIC50 (Nluc-FZD6) mean ± SEM (converted)): 8.71 µM
O=C(CN1CCOCC1)Nc1cccc(C(=O)N[C@H]2CC[C@H](N(Cc3cccc(-c4ccncc4)c3)C(=O)c3sc4ccccc4c3Cl)CC2)c1 [compound 19, 3-Chloro-N-((1r,4r)-4-(3-(2-morpholinoacetamido)benzamido)cyclohexyl)-N-(3-(pyridin-4-yl)benzyl)benzo[b]thiophene-2-carboxamide]	87.6	-0.0335	5.71 ± 0.04	–
CN[C@H]1CC[C@H](N(Cc2cccc(-c3ccncc3)c2)C(=O)c2sc3ccccc3c2Cl)CC1.Cl.Cl [SAG1.3, 3-chloro-N-[trans-4-(methylamino)cyclohexyl]-N-[[3-(4-pyridinyl)phenyl]methyl]-benzo[b]thiophene-2-carboxamide dihydrochloride]	38.7	-0.0148	–	Displacement @ 10 µM compound (Nluc-FZD6) ΔBRET (Nluc-FZD6; [4]): -0.0099; Displacement % (Nluc-FZD6; ClarioStar reader): 36.1%; Efficacy at FZD6 (FZD6): very low efficacy; Potency at FZD6 (FZD6): double-digit micromolar potency
O=C(N[C@H]1CC[C@H](N(Cc2cccc(-c3ccncc3)c2)C(=O)c2sc3ccccc3c2Cl)CC1)c1ccncc1Cl [compound 21, 3-Chloro-N-((1r,4r)-4-(3-chloro-N-(3-(pyridin-4-yl)benzyl)benzo[b]thiophene-2-carboxamido)cyclohexyl)isonicotinamide]	78.2	-0.0299	5.44 ± 0.05	–
CN1CCC(C(=O)Nc2cccc(C(=O)N[C@H]3CC[C@H](N(Cc4cccc(-c5ccncc5)c4)C(=O)c4sc5ccccc5c4Cl)CC3)c2)CC1 [compound 17, N-(3-(((1r,4r)-4-(3-Chloro-N-(3-(pyridin-4-yl)benzyl)benzo[b]thiophene-2-carboxamido)cyclohexyl)-carbamoyl)phenyl)-1-methylpiperidine-4-carboxamide]	73.6	-0.0281	5.49 ± 0.04	–
B1	–	–	–	Reason for dismissal in phase Ib clinical trials [1]: bone toxicity
